# Reference: US12006321B2, “Substituted pyrazolo[1,5-a]pyrimidines as apelin receptor agonists” (Sanford Burnham Prebys Medical Discovery Institute, priority 2017, dated 2024)
# Molecular target: T1, human apelin receptor (APJ, APLNR) (Homo sapiens, UniProt P35414)
# T1 construct: host or cells: Chinese hamster ovary (CHO) cells, stably integrated receptor
# T1 sequence (P35414 1-380): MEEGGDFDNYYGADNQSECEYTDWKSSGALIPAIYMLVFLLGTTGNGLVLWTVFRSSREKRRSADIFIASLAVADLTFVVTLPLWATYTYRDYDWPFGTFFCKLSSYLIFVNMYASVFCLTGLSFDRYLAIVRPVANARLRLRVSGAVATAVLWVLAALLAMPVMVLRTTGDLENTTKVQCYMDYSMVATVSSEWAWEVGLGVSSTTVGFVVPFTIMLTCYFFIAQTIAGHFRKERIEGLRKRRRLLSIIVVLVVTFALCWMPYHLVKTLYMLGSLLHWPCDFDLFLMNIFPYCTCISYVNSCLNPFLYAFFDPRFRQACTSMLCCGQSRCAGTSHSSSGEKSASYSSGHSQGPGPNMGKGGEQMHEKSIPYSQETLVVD
# Assay: cell-based cAMP assay (TR-FRET) in Chinese hamster ovary cells expressing the apelin receptor
# Details: EC50 = 50% of control (apelin-13, 1 nM) response; cAMP in CHO cells, 0.5 h incubation; read-out: Potency Category
# Summary of the method: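 CHO cells stably expressing human APJ were forskolin-stimulated, then exposed to compound (0.0-100 μM, ≤1% DMSO) for 0.5 h. Lysate cAMP read by competitive TR-FRET immunoassay; EC50 and efficacy expressed relative to 1 nM apelin-13, four-parameter fit over ≥10 concentrations.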
row,SMILES,EC50 [nM]
1,"CCCN(C)c1cc(C(=O)O)nc2c(-c3c(C)cccc3C)c(C)nn12 [Compound 153, 3-(2,6-dimethylphenyl)-2-methyl-7-(methylpropylamino)-8-hydropyrazolo[1,5-a]pyrimidine-5-carboxylic acid]",> 500
2,"Cc1cccc(C)c1-c1c(C)nn2c(C3=CCCCC3)cc(C(=O)O)nc12 [Compound 154, 3-(2,6-dimethylphenyl)-7-cyclohex-1-enyl-2-methyl-8-hydropyrazolo[1,5-a]pyrimidine-5-carboxylic acid]",> 500
3,"Cc1cccc(C)c1-c1c(C)nn2c(C3CCCCC3)cc(C(=O)O)nc12 [Compound 155, 3-(2,6-dimethylphenyl)-7-cyclohexyl-2-methyl-8-hydropyrazolo[1,5-a]pyrimidine-5-carboxylic acid]",> 500
4,"Cc1cccc(C)c1-c1c(C)nn2c(-c3ccco3)cc(C(=O)O)nc12 [Compound 156, 3-(2,6-dimethylphenyl)-7-(2-furyl)-2-methyl-8-hydropyrazolo[1,5-a]pyrimidine-5-carboxylic acid]",> 500
5,"Cc1cccc(C)c1-c1c(C)nn2c(C3=CCNCC3)cc(C(=O)O)nc12 [Compound 158, 3-(2,6-dimethylphenyl)-2-methyl-7-(4-1,2,5,6-tetrahydropyridyl)-8-hydropyrazolo[1,5-a]pyrimidine-5-carboxylic acid]",> 500
6,"COC(=O)c1cc(Cl)n2nc(C)c(-c3c(C)cccc3C)c2n1 [Compound 159, methyl 3-(2,6-dimethylphenyl)-7-chloro-2-methyl-8-hydropyrazolo[1,5-a]pyrimidine-5-carboxylate]",> 500

# Second part, the molecule after the results:
row,EC50 [nM],SMILES
1,> 500,Cc1cccc(C)c1-c1c(C)nn2c(N(C)c3ccccc3)cc(C(=O)O)nc12 [Compound 149]
2,> 500,"Cc1ccc(N(C)c2cc(C(=O)O)nc3c(-c4c(C)cccc4C)c(C)nn23)cc1 [Compound 150, 3-(2,6-dimethylphenyl)-2-methyl-7-[methyl(4-methylphenyl)amino]-8-hydropyrazolo[1,5-a]pyrimidine-5-carboxylic acid]"
3,> 500,"Cc1cccc(C)c1-c1c(C)nn2c(N(C)c3ccc(F)cc3)cc(C(=O)O)nc12 [Compound 151, 3-(2,6-dimethylphenyl)-7-[(4-fluorophenyl)methylamino]-2-methyl-8-hydropyrazolo[1,5-a]pyrimidine-5-carboxylic acid]"
4,> 500,"Cc1cccc(C)c1-c1c(C)nn2c(N3CCNCC3)cc(C(=O)O)nc12 [Compound 152, 3-(2,6-dimethylphenyl)-2-methyl-7-piperazinyl-8-hydropyrazolo[1,5-a]pyrimidine-5-carboxylic acid]"
